Laboratory results taken from ChEMBL document CHEMBL1201862, “PubChem BioAssay data set” (2004).
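Values below derive from 48-hour exposures of cells grown in 96-well plates, with endpoints linearly interpolated between the two concentrations bracketing the appropriate inhibition level. GI50 marks 50% less growth.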 Calls of active or inactive are those of the source. Rule as the data show it: active = GI50 up to about 1.1 µM and inactive = higher.

What was measured:
Assay in all cases: growth of human tumour cells (NCI), 48 h
SF-295 = tested on: SF-295
MDA-N = tested on: MDA-N
KM12 = tested on: KM12
NCI/ADR-RES = tested on: NCI/ADR-RES
BT-549 = tested on: BT-549
SNB-19 = tested on: SNB-19
NCI-H460 = tested on: NCI-H460
SK-OV-3 = tested on: SK-OV-3
OVCAR-5 = tested on: OVCAR-5
HOP-62 = tested on: HOP-62
HT-29 = tested on: HT-29
OVCAR-4 = tested on: OVCAR-4
786-0 = tested on: 786-0
ACHN = tested on: ACHN
MDA-MB-435 = tested on: MDA-MB-435
MCF7 = tested on: MCF7
OVCAR-3 = tested on: OVCAR-3
SK-MEL-2 = tested on: SK-MEL-2
K562 = tested on: K562
SK-MEL-28 = tested on: SK-MEL-28

SMILES	GI50 (SF-295)	GI50 (MDA-N)	GI50 (KM12)	GI50 (NCI/ADR-RES)	GI50 (BT-549)	GI50 (SNB-19)	GI50 (NCI-H460)	GI50 (SK-OV-3)	GI50 (OVCAR-5)	GI50 (HOP-62)	GI50 (HT-29)	GI50 (OVCAR-4)	GI50 (786-0)	GI50 (ACHN)	GI50 (MDA-MB-435)	GI50 (MCF7)	GI50 (OVCAR-3)	GI50 (SK-MEL-2)	GI50 (K562)	GI50 (SK-MEL-28)
CCCS(=O)(=O)Nc1ccc(Nc2c3ccccc3nc3ccccc23)c(OC)c1	0.429 µM (active)	4.16 µM (inactive)	1.92 µM (inactive)	3.95 µM (inactive)	2.37 µM (inactive)	1.08 µM (active)	0.0362 µM (active)	2.08 µM (inactive)	8.63 µM (inactive)	0.561 µM (active)	1.75 µM (inactive)	7.62 µM (inactive)	0.807 µM (active)	0.362 µM (active)	5.28 µM (inactive)	0.365 µM (active)	2.3 µM (inactive)	2.86 µM (inactive)	–	–
CN(C)c1ccc(/N=N\c2cccc3ccoc23)cc1	98.6 µM (inactive)	> 94.4 µM (inactive)	> 73.1 µM (inactive)	43.1 µM (inactive)	> 95.7 µM (inactive)	> 100 µM (inactive)	> 73.3 µM (inactive)	> 100 µM (inactive)	> 100 µM (inactive)	> 100 µM (inactive)	29.5 µM (inactive)	29.4 µM (inactive)	> 100 µM (inactive)	> 100 µM (inactive)	> 94.2 µM (inactive)	–	38.4 µM (inactive)	> 100 µM (inactive)	44.8 µM (inactive)	> 100 µM (inactive)
O=c1cc(NNc2cccc(F)c2)[nH]c(=O)[nH]1	> 100 µM (inactive)	80.2 µM (inactive)	> 100 µM (inactive)	> 100 µM (inactive)	> 100 µM (inactive)	> 100 µM (inactive)	> 100 µM (inactive)	> 100 µM (inactive)	> 100 µM (inactive)	> 100 µM (inactive)	16.3 µM (inactive)	> 100 µM (inactive)	16.6 µM (inactive)	35.6 µM (inactive)	–	–	16.5 µM (inactive)	40.5 µM (inactive)	27.3 µM (inactive)	> 100 µM (inactive)
ClC(Cl)=C1C(=C(Cl)Cl)C(Cl)(Cl)C1(Cl)Cl	2.48 µM (inactive)	1.37 µM (inactive)	4.9 µM (inactive)	–	2.77 µM (inactive)	12.5 µM (inactive)	3.93 µM (inactive)	14.9 µM (inactive)	2.64 µM (inactive)	8.18 µM (inactive)	2.02 µM (inactive)	5.07 µM (inactive)	1.07 µM (active)	2.48 µM (inactive)	2.71 µM (inactive)	4.47 µM (inactive)	4.31 µM (inactive)	1.29 µM (inactive)	0.443 µM (active)	1.44 µM (inactive)
Cn1c(COC(=O)NC2CCCCC2)c(COC(=O)NC2CCCCC2)c2ccc3cc(C=O)ccc3c21	> 100 µM (inactive)	> 100 µM (inactive)	> 100 µM (inactive)	> 100 µM (inactive)	> 100 µM (inactive)	> 100 µM (inactive)	> 10 µM (inactive)	> 100 µM (inactive)	> 100 µM (inactive)	–	> 100 µM (inactive)	–	83.6 µM (inactive)	> 100 µM (inactive)	45.7 µM (inactive)	> 100 µM (inactive)	> 100 µM (inactive)	> 100 µM (inactive)	> 100 µM (inactive)	–
CC(=O)OCC1OC(n2c(-c3ccc(C)cc3)cc(-c3ccccc3)c(C#N)c2=S)C(OC(C)=O)C(OC(C)=O)C1OC(C)=O (configuration not stated)	> 100 µM (inactive)	> 100 µM (inactive)	> 100 µM (inactive)	> 100 µM (inactive)	> 100 µM (inactive)	> 100 µM (inactive)	> 100 µM (inactive)	> 100 µM (inactive)	> 100 µM (inactive)	> 100 µM (inactive)	> 100 µM (inactive)	81.1 µM (inactive)	> 100 µM (inactive)	> 100 µM (inactive)	> 100 µM (inactive)	> 100 µM (inactive)	> 100 µM (inactive)	–	> 100 µM (inactive)	> 100 µM (inactive)
CN(C)CCNc1ncnc2nc(-c3ccccc3)c(-c3ccccc3)nc12	–	> 100 µM (inactive)	> 100 µM (inactive)	> 100 µM (inactive)	> 100 µM (inactive)	–	–	> 100 µM (inactive)	> 100 µM (inactive)	> 100 µM (inactive)	> 100 µM (inactive)	–	> 100 µM (inactive)	–	> 100 µM (inactive)	57.5 µM (inactive)	> 100 µM (inactive)	> 100 µM (inactive)	–	> 100 µM (inactive)
Cc1ccc2nc(NC(=O)C(=O)C3C(=O)NC(=S)NC3=O)sc2c1	> 100 µM (inactive)	> 100 µM (inactive)	> 100 µM (inactive)	> 100 µM (inactive)	> 100 µM (inactive)	> 100 µM (inactive)	> 100 µM (inactive)	> 100 µM (inactive)	> 100 µM (inactive)	> 100 µM (inactive)	> 100 µM (inactive)	> 100 µM (inactive)	> 100 µM (inactive)	> 100 µM (inactive)	> 100 µM (inactive)	> 100 µM (inactive)	> 100 µM (inactive)	> 100 µM (inactive)	–	> 100 µM (inactive)
O=c1[nH]c(=O)n(C2CC(O)C(CO)O2)cc1OCCc1ccccc1 (configuration not stated)	> 100 µM (inactive)	> 100 µM (inactive)	> 100 µM (inactive)	> 100 µM (inactive)	> 100 µM (inactive)	> 100 µM (inactive)	> 10 µM (inactive)	> 100 µM (inactive)	> 100 µM (inactive)	> 100 µM (inactive)	> 100 µM (inactive)	> 100 µM (inactive)	> 100 µM (inactive)	> 100 µM (inactive)	> 100 µM (inactive)	> 100 µM (inactive)	> 100 µM (inactive)	–	> 100 µM (inactive)	> 100 µM (inactive)
Nc1nc(N)c2ncn(Cc3ccccc3)c2n1	> 100 µM (inactive)	> 100 µM (inactive)	> 100 µM (inactive)	> 100 µM (inactive)	> 100 µM (inactive)	> 100 µM (inactive)	–	> 100 µM (inactive)	> 100 µM (inactive)	> 100 µM (inactive)	> 100 µM (inactive)	> 100 µM (inactive)	> 100 µM (inactive)	> 100 µM (inactive)	> 100 µM (inactive)	> 100 µM (inactive)	> 100 µM (inactive)	> 100 µM (inactive)	–	> 100 µM (inactive)
COc1cc(OC)cc(OCc2ccc3nc(-c4ccccc4)c(Cl)nc3c2)c1	22.5 µM (inactive)	44.1 µM (inactive)	58.3 µM (inactive)	25 µM (inactive)	31.3 µM (inactive)	25.9 µM (inactive)	37 µM (inactive)	–	49 µM (inactive)	16.7 µM (inactive)	48.5 µM (inactive)	24.1 µM (inactive)	9.89 µM (inactive)	17.7 µM (inactive)	84.5 µM (inactive)	58.6 µM (inactive)	> 100 µM (inactive)	35.6 µM (inactive)	–	> 100 µM (inactive)
N#C/C(C(=O)Nc1ccc(Cl)cc1)=C(/N)N1CCCCC1	54 µM (inactive)	> 100 µM (inactive)	> 100 µM (inactive)	79.3 µM (inactive)	> 100 µM (inactive)	36.8 µM (inactive)	> 100 µM (inactive)	72.6 µM (inactive)	> 100 µM (inactive)	41.3 µM (inactive)	–	–	> 100 µM (inactive)	> 100 µM (inactive)	> 100 µM (inactive)	> 100 µM (inactive)	> 100 µM (inactive)	> 100 µM (inactive)	> 100 µM (inactive)	> 100 µM (inactive)
CO/C(N)=C(C#N)/N=C/c1ccc2ccccc2c1	33.2 µM (inactive)	8.41 µM (inactive)	23.1 µM (inactive)	13 µM (inactive)	18.5 µM (inactive)	–	–	82.6 µM (inactive)	–	23.2 µM (inactive)	18.5 µM (inactive)	–	78.5 µM (inactive)	15.9 µM (inactive)	7.1 µM (inactive)	–	24.2 µM (inactive)	31.1 µM (inactive)	4.72 µM (inactive)	> 100 µM (inactive)
COC1CN(C)/C(=N\c2cccc3ccccc23)S1 (configuration not stated)	2.75 µM (inactive)	> 10 µM (inactive)	> 10 µM (inactive)	> 10 µM (inactive)	> 10 µM (inactive)	> 10 µM (inactive)	–	> 10 µM (inactive)	> 10 µM (inactive)	> 10 µM (inactive)	> 10 µM (inactive)	> 10 µM (inactive)	> 10 µM (inactive)	> 10 µM (inactive)	> 10 µM (inactive)	> 10 µM (inactive)	–	–	> 10 µM (inactive)	> 10 µM (inactive)
CC(C)Oc1c(C2(c3ccccc3)SCCCS2)c(=O)c1=O	> 100 µM (inactive)	> 100 µM (inactive)	50.2 µM (inactive)	> 100 µM (inactive)	> 100 µM (inactive)	> 100 µM (inactive)	> 100 µM (inactive)	> 100 µM (inactive)	> 100 µM (inactive)	> 100 µM (inactive)	> 100 µM (inactive)	> 100 µM (inactive)	> 100 µM (inactive)	> 100 µM (inactive)	> 100 µM (inactive)	> 100 µM (inactive)	> 100 µM (inactive)	> 100 µM (inactive)	–	> 100 µM (inactive)
